By IC50 is commonly meant the point on the concentration scale where inhibition reaches its midpoint.

Our source for the IC50 values is patent US9951063B2, “8-(piperazin-1-yl)-1,2,3,4-tetrahydro-isoquinoline derivatives” (IDORSIA PHARMACEUTICALS LTD, priority 2014, dated 2018).

Chain of human CXCR3A (P49682 whole entry): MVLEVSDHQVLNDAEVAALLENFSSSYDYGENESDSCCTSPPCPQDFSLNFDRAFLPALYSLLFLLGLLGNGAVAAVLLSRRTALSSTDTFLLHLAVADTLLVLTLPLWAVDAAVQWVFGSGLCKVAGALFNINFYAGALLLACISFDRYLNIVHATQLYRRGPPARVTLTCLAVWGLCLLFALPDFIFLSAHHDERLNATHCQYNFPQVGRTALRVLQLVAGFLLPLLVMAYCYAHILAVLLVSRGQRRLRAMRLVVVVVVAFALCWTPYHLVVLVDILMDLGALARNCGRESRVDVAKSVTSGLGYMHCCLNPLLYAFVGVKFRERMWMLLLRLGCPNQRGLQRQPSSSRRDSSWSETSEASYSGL

The target of this test is human CXCR3A (Homo sapiens (Human), UniProt P49682). As to the kind of experiment: FLIPR assay (inhibition of CXCL10-induced calcium signal). The class given is cell-based. The following applies: engineered CHO-K1 cells expressing human CXCR3A coupled to Galpha(16); Fluo-4-AM; CXCL10 agonist 20 nM; mean values where determined several times. The method in brief:
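CHO-K1 cells expressing human CXCR3A coupled to Gα16 were loaded with Fluo-4-AM for 1 h in HBSS/20 mM Hepes pH 7.4 with probenecid. Compound was added, then CXCL10 (20 nM as dispensed). Baseline-subtracted peak fluorescence gave inhibition curves and IC50, averaged over repeats.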
Take `Cc1ccn(CC(=O)N2CCN(c3ccc(C(F)(F)F)c4c3CN(c3cnc(N(C)C)nc3)CC4)C[C@H]2C)n1` [Example 51, 1-{(R)-4-[2-(2-Dimethylamino-pyrimidin-5-yl)-5-trifluoromethyl-1,2,3,4-tetrahydro-isoquinolin-8-yl]-2-methyl-piperazin-1-yl}-2-(3-methyl-pyrazol-1-yl)-ethanone]: the IC50 was determined as 4.93 nM.

In the case of `Cc1ccnn1CC(=O)N1CCN(c2ccc(C(F)(F)F)c3c2CN(c2cnc(N(C)C)nc2)CC3)C[C@H]1C` [Example 52, 1-{(R)-4-[2-(2-Dimethylamino-pyrimidin-5-yl)-5-trifluoromethyl-1,2,3,4-tetrahydro-isoquinolin-8-yl]-2-methyl-piperazin-1-yl}-2-(5-methyl-pyrazol-1-yl)-ethanone], the IC50 was 4.1 nM.

`C[C@@H]1CN(c2ccc(C(F)(F)F)c3c2CN(c2cnc(N(C)C)nc2)CC3)CCN1C(=O)Cn1ncc2cccnc21` [Example 53, 1-{(R)-4-[2-(2-Dimethylamino-pyrimidin-5-yl)-5-trifluoromethyl-1,2,3,4-tetrahydro-isoquinolin-8-yl]-2-methyl-piperazin-1-yl}-2-pyrazolo[3,4-b]pyridin-1-yl-ethanone]: the concentration for half-maximal inhibition (IC50) came to 6.15 nM.

For the molecule `CCOc1ncc(N2CCc3c(C(F)(F)F)ccc(N4CCN(C(=O)Cn5nc(C)nc5C)[C@H](C)C4)c3C2)cn1` [Example 54, 2-(3,5-Dimethyl-[1,2,4]triazol-1-yl)-1-{(R)-4-[2-(2-ethoxy-pyrimidin-5-yl)-5-trifluoromethyl-1,2,3,4-tetrahydro-isoquinolin-8-yl]-2-methyl-piperazin-1-yl}-ethanone], the half-inhibitory concentration (IC50) came to 6.22 nM.

Consider `CCOc1ncc(N2CCc3c(C(F)(F)F)ccc(N4CCN(C(=O)Cn5nc(C)cc5C)[C@H](C)C4)c3C2)cn1` [Example 55, 2-(3,5-Dimethyl-pyrazol-1-yl)-1-{(R)-4-[2-(2-ethoxy-pyrimidin-5-yl)-5-trifluoromethyl-1,2,3,4-tetrahydro-isoquinolin-8-yl]-2-methyl-piperazin-1-yl}-ethanone], for which the IC50 is 10 nM.

Take `Cc1cc(C)n(CC(=O)N2CCN(c3ccc(C(F)(F)F)c4c3CN(c3ncc(-c5ccccc5)o3)CC4)C[C@H]2C)n1` [Example 56, 2-(3,5-Dimethyl-pyrazol-1-yl)-1-{(R)-2-methyl-4-[2-(5-phenyl-oxazol-2-yl)-5-trifluoromethyl-1,2,3,4-tetrahydro-isoquinolin-8-yl]-piperazin-1-yl}-ethanone]: the IC50 was 8.14 nM.

As for `Cc1cc(C)n(CC(=O)N2CCN(c3ccc(C(F)(F)F)c4c3CN(c3nc5ccccc5s3)CC4)C[C@H]2C)n1` [Example 57, 1-[(R)-4-(2-Benzothiazol-2-yl-5-trifluoromethyl-1,2,3,4-tetrahydro-isoquinolin-8-yl)-2-methyl-piperazin-1-yl]-2-(3,5-dimethyl-pyrazol-1-yl)-ethanone], the half-inhibitory concentration (IC50) was found to be 26.5 nM.

In the case of `CCc1ncc(N2CCc3c(C(F)(F)F)ccc(N4CCN(C(=O)Cn5nc(C)nc5C)[C@H](C)C4)c3C2)cn1` [Example 58, 2-(3,5-Dimethyl-[1,2,4]triazol-1-yl)-1-{(R)-4-[2-(2-ethyl-pyrimidin-5-yl)-5-trifluoromethyl-1,2,3,4-tetrahydro-isoquinolin-8-yl]-2-methyl-piperazin-1-yl}-ethanone], the half-inhibitory concentration (IC50) worked out at 16.9 nM.

Turning to `Cc1nc(C)n(CC(=O)N2CCN(c3ccc(C(F)(F)F)c4c3CN(c3cnc(C(F)(F)F)nc3)CC4)C[C@H]2C)n1` [Example 59, 2-(3,5-Dimethyl-[1,2,4]triazol-1-yl)-1-{(R)-2-methyl-4-[5-trifluoromethyl-2-(2-trifluoromethyl-pyrimidin-5-yl)-1,2,3,4-tetrahydro-isoquinolin-8-yl]-piperazin-1-yl}-ethanone], the 50% inhibitory concentration (IC50) is 12.3 nM.

On to `C[C@@H]1CN(c2cccc3c2CN(C(=O)OCc2ccccc2)CC3)CCN1C(=O)Cn1cnc2cccnc21` [Example 60, 8-[(R)-4-(2-Imidazo[4,5-b]pyridin-3-yl-acetyl)-3-methyl-piperazin-1-yl]-3,4-dihydro-1H-isoquinoline-2-carboxylic acid benzyl ester], for which the IC50 was determined as 7.94 nM.

On to `C[C@@H]1CN(c2cccc3c2CN(C(=O)C2CC2)CC3)CCN1C(=O)Cn1cnc2cccnc21` [Example 61, 1-[(R)-4-(2-Cyclopropanecarbonyl-1,2,3,4-tetrahydro-isoquinolin-8-yl)-2-methyl-piperazin-1-yl]-2-imidazo[4,5-b]pyridin-3-yl-ethanone], for which the concentration for half-maximal inhibition (IC50) is 223 nM.

For `COc1ccc(C(=O)N2CCc3cccc(N4CCN(C(=O)Cn5cnc6cccnc65)[C@H](C)C4)c3C2)cc1` [Example 62, 2-Imidazo[4,5-b]pyridin-3-yl-1-{(R)-4-[2-(4-methoxy-benzoyl)-1,2,3,4-tetrahydro-isoquinolin-8-yl]-2-methyl-piperazin-1-yl}-ethanone], the IC50 is 121 nM.

In the case of `C[C@@H]1CN(c2cccc3c2CN(C(=O)Cc2cccnc2)CC3)CCN1C(=O)Cn1cnc2cccnc21` [Example 63, 2-Imidazo[4,5-b]pyridin-3-yl-1-{(R)-2-methyl-4-[2-(2-pyridin-3-yl-acetyl)-1,2,3,4-tetrahydro-isoquinolin-8-yl]-piperazin-1-yl}-ethanone], the 50% inhibitory concentration (IC50) was determined as 668 nM.

Regarding `COc1ccc(CCC(=O)N2CCc3cccc(N4CCN(C(=O)Cn5cnc6cccnc65)[C@H](C)C4)c3C2)cc1` [Example 64, 1-{8-[(R)-4-(2-Imidazo[4,5-b]pyridin-3-yl-acetyl)-3-methyl-piperazin-1-yl]-3,4-dihydro-1H-isoquinolin-2-yl}-3-(4-methoxy-phenyl)-propan-1-one], the IC50 was found to be 188 nM.

Take `C[C@@H]1CN(c2cccc3c2CN(C(=O)c2cocn2)CC3)CCN1C(=O)Cn1cnc2cccnc21` [Example 65, 2-Imidazo[4,5-b]pyridin-3-yl-1-{(R)-2-methyl-4-[2-(oxazole-4-carbonyl)-1,2,3,4-tetrahydro-isoquinolin-8-yl]-piperazin-1-yl}-ethanone]: the IC50 was determined as 483 nM.

Take `C[C@@H]1CN(c2cccc3c2CN(C(=O)Cn2ccc4ccccc42)CC3)CCN1C(=O)Cn1cnc2cccnc21` [Example 66, 2-Imidazo[4,5-b]pyridin-3-yl-1-{(R)-4-[2-(2-indol-1-yl-acetyl)-1,2,3,4-tetrahydro-isoquinolin-8-yl]-2-methyl-piperazin-1-yl}-ethanone]: the IC50 was determined as 304 nM.

`CC(C)C(=O)N1CCc2cccc(N3CCN(C(=O)Cn4cnc5cccnc54)[C@H](C)C3)c2C1` [Example 67, 1-{8-[(R)-4-(2-Imidazo[4,5-b]pyridin-3-yl-acetyl)-3-methyl-piperazin-1-yl]-3,4-dihydro-1H-isoquinolin-2-yl}-2-methyl-propan-1-one]: the half-maximal inhibitory concentration (IC50) turned out to be 614 nM.

Take `COCC(=O)N1CCc2cccc(N3CCN(C(=O)Cn4cnc5cccnc54)[C@H](C)C3)c2C1` [Example 68, 2-Imidazo[4,5-b]pyridin-3-yl-1-{(R)-4-[2-(2-methoxy-acetyl)-1,2,3,4-tetrahydro-isoquinolin-8-yl]-2-methyl-piperazin-1-yl}-ethanone]: the concentration for half-maximal inhibition (IC50) was 599 nM.

As for `C[C@@H]1CN(c2cccc3c2CN(C(=O)C2CCCC2)CC3)CCN1C(=O)Cn1cnc2cccnc21` [Example 69, 1-[(R)-4-(2-Cyclopentanecarbonyl-1,2,3,4-tetrahydro-isoquinolin-8-yl)-2-methyl-piperazin-1-yl]-2-imidazo[4,5-b]pyridin-3-yl-ethanone], the half-maximal inhibitory concentration (IC50) was determined as 21.7 nM.

`C[C@@H]1CN(c2cccc3c2CN(C(=O)C2CCCCC2)CC3)CCN1C(=O)Cn1cnc2cccnc21` [Example 70, 1-[(R)-4-(2-Cyclohexanecarbonyl-1,2,3,4-tetrahydro-isoquinolin-8-yl)-2-methyl-piperazin-1-yl]-2-imidazo[4,5-b]pyridin-3-yl-ethanone]: the concentration for half-maximal inhibition (IC50) was 55.5 nM.

For the molecule `C[C@@H]1CN(c2cccc3c2CN(C(=O)[C@@H]2CCCc4ccccc42)CC3)CCN1C(=O)Cn1cnc2cccnc21` [Example 71, 2-Imidazo[4,5-b]pyridin-3-yl-1-{(R)-2-methyl-4-[2-((R)-1,2,3,4-tetrahydro-naphthalene-1-carbonyl)-1,2,3,4-tetrahydro-isoquinolin-8-yl]-piperazin-1-yl}-ethanone], the IC50 was 80.2 nM.

Turning to `C[C@@H]1CN(c2cccc3c2CN(C(=O)c2ccccc2)CC3)CCN1C(=O)Cn1cnc2cccnc21` [Example 72, 1-[(R)-4-(2-Benzoyl-1,2,3,4-tetrahydro-isoquinolin-8-yl)-2-methyl-piperazin-1-yl]-2-imidazo[4,5-b]pyridin-3-yl-ethanone], the IC50 amounted to 92.2 nM.

Consider `Cc1ccc(C(=O)N2CCc3cccc(N4CCN(C(=O)Cn5cnc6cccnc65)[C@H](C)C4)c3C2)cc1` [Example 73, 2-Imidazo[4,5-b]pyridin-3-yl-1-{(R)-2-methyl-4-[2-(4-methyl-benzoyl)-1,2,3,4-tetrahydro-isoquinolin-8-yl]-piperazin-1-yl}-ethanone], for which the IC50 came out at 111 nM.

As for `C[C@@H]1CN(c2cccc3c2CN(C(=O)c2ccc(Cl)cc2)CC3)CCN1C(=O)Cn1cnc2cccnc21` [Example 74, 1-{(R)-4-[2-(4-Chloro-benzoyl)-1,2,3,4-tetrahydro-isoquinolin-8-yl]-2-methyl-piperazin-1-yl}-2-imidazo[4,5-b]pyridin-3-yl-ethanone], the IC50 was 46.6 nM.

`C[C@@H]1CN(c2cccc3c2CN(C(=O)c2ccc(Cl)c(Cl)c2)CC3)CCN1C(=O)Cn1cnc2cccnc21` [Example 75, 1-{(R)-4-[2-(3,4-Dichloro-benzoyl)-1,2,3,4-tetrahydro-isoquinolin-8-yl]-2-methyl-piperazin-1-yl}-2-imidazo[4,5-b]pyridin-3-yl-ethanone]: the IC50 came out at 17 nM.

Consider `C[C@@H]1CN(c2cccc3c2CN(C(=O)c2cccc(N(C)C)c2)CC3)CCN1C(=O)Cn1cnc2cccnc21` [Example 76, 1-{(R)-4-[2-(3-Dimethylamino-benzoyl)-1,2,3,4-tetrahydro-isoquinolin-8-yl]-2-methyl-piperazin-1-yl}-2-imidazo[4,5-b]pyridin-3-yl-ethanone], for which the IC50 was 82.4 nM.
